In the NIST ThermoML archive (doi:10.1021/je060371g):
± gives the expanded uncertainty stated by the source.

Conditions: Fluid (supercritical or subcritical phases), Buoyancy - hydrostatic balance with magnetic suspension - one sinker

FC(F)Cl [chlorodifluoromethane]
specific volume [m3/kg]
Conditions	298.2 K	323.2 K	348.2 K	373.2 K	423.2 K	473.2 K	523.2 K	573.2 K
10000 kPa	0.000815 ± 7e-06	0.00087 ± 7e-06	0.000955 ± 8e-06	0.001091 ± 1.4e-05	0.002006 ± 4.1e-05	0.003216 ± 6.8e-05	0.004117 ± 9.3e-05	0.004957 ± 0.00011
20000 kPa	0.000787 ± 6e-06	0.000831 ± 7e-06	0.000887 ± 7e-06	0.000967 ± 9e-06	0.001169 ± 2.2e-05	0.001531 ± 4.2e-05	0.001932 ± 5.6e-05	0.00244 ± 6.7e-05
30000 kPa	0.000771 ± 6e-06	0.00081 ± 7e-06	0.000852 ± 7e-06	0.000907 ± 8e-06	0.001037 ± 9e-06	0.00121 ± 1.3e-05	0.001431 ± 1.8e-05	0.001751 ± 2.5e-05
40000 kPa	0.000755 ± 6e-06	0.00079 ± 6e-06	0.000828 ± 7e-06	0.000875 ± 7e-06	0.000973 ± 8e-06	0.001089 ± 1e-05	0.001241 ± 1.2e-05	0.001393 ± 1.5e-05
50000 kPa	0.000743 ± 6e-06	0.000773 ± 6e-06	0.000807 ± 7e-06	0.000842 ± 7e-06	0.000923 ± 8e-06	0.001015 ± 8e-06	0.001126 ± 9e-06	0.001258 ± 1.1e-05
75000 kPa	0.000717 ± 6e-06	0.000743 ± 6e-06	0.000768 ± 6e-06	0.000797 ± 6e-06	0.000856 ± 7e-06	0.000922 ± 7e-06	0.000987 ± 8e-06	0.00105 ± 9e-06
100000 kPa	0.000698 ± 6e-06	0.000715 ± 6e-06	0.000742 ± 6e-06	0.000765 ± 6e-06	0.000814 ± 7e-06	0.000867 ± 7e-06	0.00092 ± 7e-06	0.000968 ± 8e-06
125000 kPa	0.000682 ± 5e-06	0.000699 ± 6e-06	0.000719 ± 6e-06	0.000741 ± 6e-06	0.000784 ± 6e-06	0.00083 ± 7e-06	0.000872 ± 7e-06	0.000911 ± 7e-06
150000 kPa	0.00067 ± 5e-06	0.000683 ± 5e-06	0.000701 ± 6e-06	0.000722 ± 6e-06	0.000759 ± 6e-06	0.000797 ± 6e-06	0.000835 ± 7e-06	0.00087 ± 7e-06
175000 kPa	0.000657 ± 5e-06	0.00067 ± 5e-06	0.000686 ± 6e-06	0.000705 ± 6e-06	0.000738 ± 6e-06	0.000772 ± 6e-06	0.000808 ± 7e-06	0.00084 ± 7e-06
200000 kPa	0.000646 ± 5e-06	0.00066 ± 5e-06	0.000674 ± 5e-06	0.000689 ± 6e-06	0.000721 ± 6e-06	0.000754 ± 6e-06	0.000785 ± 6e-06	0.000814 ± 7e-06
225000 kPa	0.000638 ± 5e-06	0.000651 ± 5e-06	0.000663 ± 5e-06	0.000677 ± 5e-06	0.000707 ± 6e-06	0.000735 ± 6e-06	0.000764 ± 6e-06	0.00079 ± 6e-06
250000 kPa	0.00063 ± 5e-06	0.000643 ± 5e-06	0.000655 ± 5e-06	0.000667 ± 5e-06	0.000695 ± 6e-06	0.00072 ± 6e-06	0.000744 ± 6e-06	0.000767 ± 6e-06
275000 kPa	0.000624 ± 5e-06	0.000635 ± 5e-06	0.000646 ± 5e-06	0.000658 ± 5e-06	0.000682 ± 5e-06	0.000705 ± 6e-06	0.000728 ± 6e-06	0.000749 ± 6e-06
300000 kPa	0.000617 ± 5e-06	0.000628 ± 5e-06	0.000639 ± 5e-06	0.00065 ± 5e-06	0.000673 ± 5e-06	0.000694 ± 6e-06	0.000714 ± 6e-06	0.000732 ± 6e-06
325000 kPa	0.000611 ± 5e-06	0.000621 ± 5e-06	0.000632 ± 5e-06	0.000642 ± 5e-06	0.000661 ± 5e-06	0.000683 ± 5e-06	0.000698 ± 6e-06	0.000717 ± 6e-06
350000 kPa	0.000606 ± 5e-06	0.000616 ± 5e-06	0.000625 ± 5e-06	0.000636 ± 5e-06	0.000655 ± 5e-06	0.000671 ± 5e-06	0.000687 ± 6e-06	0.000704 ± 6e-06
375000 kPa	0.0006 ± 5e-06	0.00061 ± 5e-06	0.000619 ± 5e-06	0.000629 ± 5e-06	0.000645 ± 5e-06	0.000661 ± 5e-06	0.000676 ± 5e-06	0.000692 ± 6e-06
400000 kPa	0.000596 ± 5e-06	0.000605 ± 5e-06	0.000614 ± 5e-06	0.000623 ± 5e-06	0.000638 ± 5e-06	0.000652 ± 5e-06	0.000666 ± 5e-06	0.00068 ± 5e-06
425000 kPa	0.000591 ± 5e-06	0.0006 ± 5e-06	0.000608 ± 5e-06	0.000617 ± 5e-06	0.000631 ± 5e-06	0.000644 ± 5e-06	0.000658 ± 5e-06	0.000671 ± 5e-06
450000 kPa	0.000587 ± 5e-06	0.000595 ± 5e-06	0.000603 ± 5e-06	0.000612 ± 5e-06	0.000625 ± 5e-06	0.000637 ± 5e-06	0.000649 ± 5e-06	0.000663 ± 5e-06
475000 kPa	0.000582 ± 5e-06	0.00059 ± 5e-06	0.000598 ± 5e-06	0.000606 ± 5e-06	0.000619 ± 5e-06	0.000629 ± 5e-06	0.00064 ± 5e-06	0.000651 ± 5e-06
500000 kPa	0.000579 ± 5e-06	0.000586 ± 5e-06	0.000594 ± 5e-06	0.000602 ± 5e-06	0.000614 ± 5e-06	0.000623 ± 5e-06	0.000633 ± 5e-06	0.000643 ± 5e-06
